Test results taken from US4053603A, “Benzylisoquinoline derivatives, and use as anti-arrhythmic drugs” (Astra Pharmaceutical Products, Inc., priority 1976, dated 1977).
Several values for one entry are separate records, joined by “and”; a condition that tells them apart may be missing. Identical values can stand only once. Entries after “also recorded” stand apart in the source; their conditions may differ. Like-named read-outs stand apart in the source and are kept apart here.

Columns and labels:
[1] = system: chloroform-induced ventricular fibrillation; assay: protection against chloroform-induced ventricular fibrillation in mice; assay type: in vivo, mouse (female Swiss albino, Ham/ICR); conditions: for ED50: Mus musculus, sc, read-out: ED50 for protecting against fibrillation; for antiarrhythmic activity (in words): chloroform fibrillation; for relative Potency (molar basis): ED50^-1 in mmol/kg, standardized to compound 1 = 1
Experimental: (§1) Ventricular fibrillation was produced in female Swiss albino mice (Ham/ICR weighing 18-25g.) essentially according to the method described by Lawson in J. Pharm, Exp. Therap. 160, 22 (1968).
The mice were placed individually into a 2,000 ml. beaker with cotton and 50 ml. of chloroform. Immediately after cessation of respiration the mouse was removed from the beaker, the thorax opened and the heart examined for the presence or absence of ventricular fibrillation. Each heart was stimulated by touching with forceps, and the nature of the cardiac rhythm was noted and confirmed by electrocardiographic recordings. The heart was considered to be fibrillating if fine tremulous movements were present on the surface of the ventricle and persisted for at least five seconds after the mechanical stimulus. Ventricular fibrillation was considered absent in those animals in which coordinated ventricular activity was evident following such procedures.
(§2) For initial evaluation of antiarrhythmic activity and toxicity of test compounds, a dose of 100 mg/kg (calculated for the base form, 1% solution in 0.9% saline, adjusted to pH 6-7) was administered subcutaneously to a group of 10 non-fasted, randomly selected mice. […] After 20 minutes they were exposed to chloroform vapors and tested for protection against fibrillation.
For determination of ED50 and relative potency of the compounds, three log-spaced doses of drug were selected to give a low, intermediate, and high degree of protection against fibrillation. Each dose was administered to 10 mice.
The data obtained from the three point assay was computer-analyzed using Berkson's minimum logit chi square analysis. The program was designed to give ED50 values with 95 percent Fieller limits.

[2] = system: mice; assay: central nervous system toxicity observation in mice (ataxia, convulsions, loss of righting reflex, death); assay type: in vivo, mouse (female Swiss albino, Ham/ICR); conditions: for Toxicity: Death (number of mice) / Toxicity: Ataxia (number of mice) / Toxicity: Con. (Convulsions) (number of mice) / Toxicity: LRR (Loss of righting reflex) (number of mice): 100 mg/kg s.c., 10 mice; for Toxicity: Ataxia (number of mice) / Toxicity: Con. (Convulsions) (number of mice) / Toxicity: LRR (Loss of righting reflex) (number of mice): 20 min observation; for toxicity (in words): mice
Experimental: as §1, §2

[3] = coronary ligated dogs, antiarrhythmic effect and toxicity, intravenous infusion (Harris procedure); assay type: in vivo, dog; conditions: dog, in vivo, iv
Experimental: (§3) Further confirmation of the superiority of the secondary amine compound was provided by comparison of the secondary and tertiary amines in tests on coronary ligated dogs. The tests were conducted in accordance with the procedure of Harris given in Circulation, 1, 1318, 1950. The drugs were administered by the intravenous route by infusion at a dosage of 0.5 mg./kg./minute, in a volume of 0.97 ml./minute and a concentration of 5.2-4.3 mg/ml. The animals were weighed and the solutions prepared on the day of the experiment.

[4] = system: ventricular arrhythmias in coronary ligated dogs; assay: as above; assay type: in vivo, dog; conditions: for Mean Arterial Blood Pressure, values after administration / Ventricular Rate, values after administration: i.v. infusion 0.5 mg/kg/minute
Experimental: as §3

[5] = system: mice; assay: central nervous system toxicity observation in mice (ataxia, convulsions, loss of righting reflex, death); assay type: in vivo, mouse (female Swiss albino, Ham/ICR); conditions: 138 mg/kg s.c., 10 mice
[6] = system: heart; conditions: cited from earlier work
[7] = system: central nervous system; conditions: metabolite of lidocaine, high doses of lidocaine; cited from earlier work
[8] = mice, three log-spaced doses, 10 mice each, 95% Fieller limits in brackets

Row | SMILES | ED50 [1, 8] | antiarrhythmic activity (in words) ([1]; mice) | Toxicity: Death (number of mice) [2] | Toxicity: Ataxia (number of mice) [2] | Toxicity: Con. (Convulsions) (number of mice) [2] | Toxicity: LRR (Loss of righting reflex) (number of mice) [2] | toxicity (in words) [2] | relative Potency (molar basis) [1] | also measured
1 | CCN(CC)CC(=O)Nc1cc(OC)c(OC)cc1Cc1nccc2cc(OC)c(OC)cc12 [Compound 1] | 211 mg/kg | increased the antiarrhythmic activity | 0 | 0 | 0 | 0 | decreased the central nervous system toxicity | – | –
2 | CCNCC(=O)Nc1cc(OC)c(OC)cc1Cc1nccc2cc(OC)c(OC)cc12 [Compound 2] | 142 mg/kg | comparable protection against fibrillation at the same test dose | 0 | 9 | 0 | 0 | toxicity symptoms; also recorded: higher toxicity | 1 | –
3 | CCN(CC)CC(=O)Nc1c(Cc2nccc3ccccc23)ccc(OC)c1OC [Compound 3] | 146 mg/kg | greater antiarrhythmic activity | 0 | 0 | 0 | 0 | lower toxicity | 1 | dose producing toxicity ([3]; Dose Producing Toxicity (convulsion)): 15.8 mg/kg; dose producing toxicity ([3]; Dose Producing Toxicity (profound head tremors)): 12.5 mg/kg; abolishing severe arrhythmias (in words) ([4]; coronary ligated dogs, i.v.): effective in abolishing severe arrhythmias; Mean Arterial Blood Pressure, values after administration ([4]; dog): 100 and 90; Ventricular Rate, values after administration ([4]; dog): 153 and 135; Dose Producing Toxicity (profound head tremors) ([4]; dog, in vivo, iv): 6.25 mg/kg
4 | CCNCC(=O)Nc1c(Cc2nccc3ccccc23)ccc(OC)c1OC [Compound 4, 1-(2-[2-ethylamino-acetyl]amino-3,4-dimethoxybenzyl)isoquinoline] | 54 mg/kg | markedly higher antiarrhythmic potency than both its tertiary amine congener, compound 3, and lidocaine | 0 | 0 | 0 | 0 | – | 3 | abolishing severe arrhythmias (in words) ([4]; coronary ligated dogs, i.v.): effective in abolishing severe arrhythmias; central nervous system and cardiovascular toxicity at effective doses (in words) ([4]; coronary ligated dogs, i.v.): free from indications of central nervous system and cardiovascular toxicity; dose producing toxicity ([4]; dog, i.v. infusion): (c); Mean Arterial Blood Pressure, values after administration ([4]; dog): 125 and 85; Ventricular Rate, values after administration ([4]; dog): 147 and 123
5 | COc1ccc(Cc2nccc3ccccc23)c(NC(=O)C(C)N)c1OC (stereo not drawn) [Compound 5] | 257 mg/kg | did not show any outstanding properties | 0 | 0 | 0 | 0 | – | 1 | –
6 | CCN(CC)CC(=O)Nc1cc(OC)c(OC)cc1Cc1nccc2ccccc12 [Compound 6] | – | – | 0 | 7 | 0 | 0 | – | – | –
7 | CCN(CC)CC(=O)Nc1c(CC2c3ccccc3CCN2C)ccc(OC)c1OC (stereo not drawn) [Compound 7] | 160 mg/kg | essentially the same protection | – | – | – | – | comparable toxicity characteristics, as compound 1 | 1 | Toxicity: Ataxia (number of mice) [5]: 0; Toxicity: Con. (Convulsions) (number of mice) [5]: 0; Toxicity: Death (number of mice) [5]: 0; Toxicity: LRR (Loss of righting reflex) (number of mice) [5]: 0
8 | CCN(CC)CC(=O)Nc1c(C)cccc1C [Lidocaine, 2-diethylamino-2',6'-acetoxylidide, reference compound] | – | strong antiarrhythmic activity | 0 | – | – | – | – | – | ED50 [1]: 62 mg/kg; antiarrhythmic effectiveness (in words) ([6]; intravenous and intramuscular): proved effective as an antiarrhythmic drug administered both intravenously and intramuscularly
9 | COc1ccc(Cc2nccc3cc(OC)c(OC)cc23)cc1OC [Papaverine, reference compound] | – | only little antiarrhythmic activity | 0 | 2 | 0 | 0 | some evidence of toxicity | – | cardiac effect / arrhythmia at clinical doses (in words) ([6]; background, clinical use): doses required were also found to cause dangerous arrhythmias by depression of A-V and intraventricular conduction
10 | CCNCC(=O)Nc1c(C)cccc1C [monoethylglycinexylidide] | – | – | – | – | – | – | – | – | contribution to convulsive symptoms of CNS toxicity (in words) [7]: appears to be the metabolite contributing to the production of the convulsive symptoms of central nervous system toxicity with high doses of lidocaine
